Assay results as given in PubChem BioAssay (NCI).
Where “and” joins values, the source holds several entries; their conditions need not be identical. Identical values can stand only once.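 96-well plates; 48 h exposure; 5 concentrations. Endpoints by linear interpolation between flanking doses. Not reached: highest tested concentration assigned. GI50 is the concentration that inhibits growth by half. The concentration for full growth arrest is given as TGI.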

Legend:
Test in all cases: NCI anticancer screen, dose series, 48 h
[1] = tested on: HT29 colon
[2] = tested on: SN12C renal
[3] = tested on: SW-620 colon
[4] = tested on: OVCAR-8 ovarian
[5] = tested on: NCI-H226 lung
[6] = tested on: A498 renal
[7] = tested on: HOP-62 NSCLC
[8] = tested on: MCF7 breast
[9] = tested on: MDA-MB-231 breast
[10] = tested on: PC-3 prostate

| Structure (SMILES) | TGI [1] | TGI [2] | TGI [3] | TGI [4] | TGI [5] | TGI [6] | TGI [7] | TGI [8] | TGI [9] | TGI [10] | GI50 [1] | GI50 [4] | GI50 [5] | GI50 [6] | GI50 [10] | GI50 [9] |
| --- | --- | --- | --- | --- | --- | --- | --- | --- | --- | --- | --- | --- | --- | --- | --- | --- |
| CC12CCC3C(CCC4CC(OC(=O)Cc5ccc(N(CCCl)CCCl)cc5)CCC43C)C1CCC(=O)N2 (stereo not drawn) | 30.2 µM | 29.6 µM | 27.8 µM | 29.2 µM | 30.1 µM | 31.4 µM | – | – | – | – | – | – | – | – | – | – |
| Cn1ccnc1C(O)(c1nccn1C)c1nccn1C | > 100 µM | > 100 µM | > 100 µM | > 100 µM | > 100 µM | – | > 100 µM | – | – | – | – | – | – | – | – | – |
| CC(=O)O[C@H]1C(=O)[C@@]2(C)[C@H]([C@H](OC(=O)c3ccc(F)cc3)[C@]3(O)C[C@H](OC(=O)[C@H](O)[C@@H](NC(=O)c4ccccc4)c4ccccc4)C(C)=C1C3(C)C)[C@]1(OC(C)=O)CO[C@@H]1C[C@@H]2O | 3.85 µM | > 25 µM | > 25 µM | – | > 25 µM | > 6.73 µM | > 25 µM | > 25 µM | > 25 µM | – | – | – | – | – | – | – |
| O=C(Cc1ccccc1)NN1C(=O)/C(=C\c2ccccc2)SC1=Nc1ccccc1 | > 100 µM | > 100 µM | > 100 µM | > 100 µM | > 100 µM | > 100 µM | > 100 µM | > 100 µM | > 100 µM | – | – | – | – | – | – | – |
| COc1c(O)c2c3c(c(C)cc(O)c3c1O)C(=O)C(O)(C(C)(C)C(C)=O)C2=O (stereo not drawn) | > 100 µM | > 100 µM | > 100 µM | > 100 µM | 34.6 µM | – | > 100 µM | – | – | – | – | – | – | – | – | – |
| CCOC(=O)c1c(-c2ccccc2)c(-c2ccccc2)cn1C | > 10 µM | > 10 µM | – | > 10 µM | > 10 µM | – | – | – | – | – | – | – | – | – | – | – |
| CCN1CCCC(NCc2c3ccccc3c(CNC3CCCN(CC)C3)c3ccccc23)C1 (stereo not drawn) | > 37.5 µM | 40.3 µM | 29.4 µM | > 74.4 µM | 30 µM | 28.2 µM | > 63.4 µM | 15.2 µM | – | – | – | – | – | – | – | – |
| Nc1nc(N)c(N=O)c(Nc2ccc(Br)cc2)n1 | 52.3 µM | > 100 µM | > 100 µM | > 100 µM | 92.7 µM | 35.2 µM | 63.9 µM | – | – | – | – | – | – | – | – | – |
| CCC1=NC(C(F)(F)F)(C(F)(F)F)N=C(N2CCOCC2)O1 | > 100 µM | > 100 µM | > 100 µM | > 100 µM | – | – | – | > 100 µM | > 100 µM | > 100 µM | – | – | – | – | – | – |
| O=C(Nc1ccccc1F)c1cc2ccc(O)cc2oc1=Nc1ccccc1F | 32.9 µM | – | 8.98 µM | 3.36 µM | – | – | 4.31 µM | 11.3 µM | – | 7.61 µM | – | – | – | – | – | – |
| CC(C(=O)N1C(=O)N(C(=O)C(C)C(O)c2ccccc2)C2CCCCC21)C(O)c1ccccc1 (stereo not drawn) | – | > 100 µM | > 100 µM | > 100 µM | – | – | > 100 µM | – | – | – | – | – | – | – | – | – |
| N=C(N)c1ccc(-c2ccc(-c3cccs3)s2)cc1 | 2.6 µM | – | – | 4.79 µM | 33 µM | 3.04 µM | – | – | 3.28 µM | 3.15 µM | 1.24 µM | 1.79 µM | 4.03 µM | 0.462 µM | 1.62 µM | 1.64 µM |
| COc1cc2c(cc1OC)[C@H]1CN3CCC[C@H]3C=C1c1ccc(OC)c(O)c1-2 | 0.0218 µM and 0.0484 µM | – | – | 0.0015 µM and 0.0123 µM | 0.0102 µM | – | – | – | 0.0523 µM | 0.0269 µM | – | – | – | – | – | – |
| O=C(NC(COC(=O)C(Cc1ccccc1)NC(=O)c1ccccc1)Cc1ccccc1)c1ccccc1 (stereo not drawn) | > 50 µM | – | > 50 µM | > 50 µM | – | > 50 µM | > 50 µM | > 50 µM | – | > 50 µM | – | – | – | – | – | – |
| CSC(=Nc1ccccc1)N(c1ccccc1)c1nc(=[N+](C)C)ss1 | 0.383 µM | 14.7 µM | 3.27 µM | 6.19 µM | – | 27.9 µM | 27.2 µM | – | – | – | – | – | – | – | – | – |
| CC(C)(C)OC(=O)NCCC(N)=S | > 100 µM | > 100 µM | > 100 µM | > 100 µM | > 100 µM | > 100 µM | > 100 µM | > 100 µM | – | > 100 µM | – | – | – | – | – | – |
| CC(C)=CCC/C(C)=C/COC(C)(C)C1=CCC(C)CC1 (stereo not drawn) (tested in a mixture with another compound) | > 100 µM | > 100 µM | > 100 µM | > 100 µM | – | > 100 µM | > 100 µM | > 100 µM | – | > 100 µM | – | – | – | – | – | – |
| C=Cc1ccc(C)[n+](C[Si](C)(C)O[Si](C)(C)C[n+]2cc(C=C)ccc2C)c1 | > 100 µM | > 100 µM | > 100 µM | > 100 µM | > 100 µM | – | > 100 µM | – | – | – | – | – | – | – | – | – |
| CCC1=CC2CN3Cn4c(c(COCc5c6n(c7ccccc57)CN5CC7C=C(CC)C5C6(C(=O)OC)C7)c5ccccc54)C(C(=O)OC)(C2)C13 | > 100 µM | > 100 µM | > 100 µM | > 100 µM | > 100 µM | > 100 µM | > 100 µM | – | – | – | – | – | – | – | – | – |
| C(=Nc1ccc(-c2nc3ccccc3o2)cc1)c1ccco1 | > 100 µM | > 100 µM | > 100 µM | > 100 µM | – | 95 µM | – | > 100 µM | – | > 100 µM | – | – | – | – | – | – |
